According to ChEMBL document CHEMBL3217590, “Discovery of a new class of dithiocarbamates and rhodanine scaffolds as potent antifungal agents: synthesis, biology and molecular docking” (Medchemcomm, 2012):
Converted amounts (≈) assume the structure as drawn.

How the values were obtained:
Candida albicans [1] = assay: Anticandidal activity against Candida albicans CDRI after 24 to 48 hrs by broth microdilution technique; type: functional
Candida parapsilosis = assay: Antifungal activity against Candida parapsilosis ATCC22019 after 24 to 48 hrs by broth microdilution technique; type: functional; conditions: Lodderomyces parapsilosis
Aspergillus fumigatus = assay: Antifungal activity against Aspergillus fumigatus after 72 to 96 hrs by broth microdilution technique; type: functional
[2] = system: Trichophyton mentagrophytes; assay: Antifungal activity against Trichophyton mentagrophytes after 72 to 96 hrs by broth microdilution technique; type: functional
Candida albicans [3] = assay: Anticandidal activity against Candida albicans MTCC183 after 24 to 48 hrs by broth microdilution technique; type: functional
Sporothrix schenckii [4] = assay: Ratio of clotrimazole MIC to compound MIC against Sporothrix schenckii after 72 to 96 hrs by broth microdilution technique; type: functional
Candida albicans [5] = assay: Antifungal activity against Candida albicans after 24 to 48 hrs by broth microdilution technique; type: functional
Candida albicans [6] = assay: Anticandidal activity against amphotericin-B resistant Candida albicans after 24 to 48 hrs by broth microdilution technique; type: functional
Candida albicans [7] = assay: Anticandidal activity against Candida albicans ATCC750 after 24 to 48 hrs by broth microdilution technique; type: functional
Candida albicans [8] = assay: Anticandidal activity against Candida albicans ATCC10231 after 24 to 48 hrs by broth microdilution technique; type: functional
L929 [9] = assay: Cytotoxicity against mouse L929 cells assessed as decline in cell survival at 12.5 to 50 ug/ml after 24 hrs by spectrophotometric analysis; type: cell-based; conditions: l929, 24 h
Candida albicans [10] = assay: Anticandidal activity against Candida albicans ATCC-MYA 2950 after 24 to 48 hrs by broth microdilution technique; type: functional
Candida albicans [11] = assay: Ratio of fluconazole MIC to compound MIC against amphotericin-B resistant Candida albicans after 24 to 48 hrs by broth microdilution technique; type: functional
Sporothrix schenckii [12] = assay: Ratio of fluconazole MIC to compound MIC against Sporothrix schenckii after 72 to 96 hrs by broth microdilution technique; type: functional
Candida albicans [13] = assay: Anticandidal activity against Candida albicans ATCC14053 after 24 to 48 hrs by broth microdilution technique; type: functional
L929 [14] = assay: Cytotoxicity against mouse L929 cells assessed as morphological changes up to 3.12 ug/ml after 24 hrs by giemsa staining based phase contrast microscopy; type: cell-based; conditions: l929, 24 h
Sporothrix schenckii [15] = assay: Antifungal activity against Sporothrix schenckii after 72 to 96 hrs by broth microdilution technique; type: functional
Cryptococcus neoformans = assay: Antifungal activity against Cryptococcus neoformans after 24 to 48 hrs by broth microdilution technique; type: functional
Candida albicans [16] = assay: Anticandidal activity against Candida albicans isolated from patient after 24 to 48 hrs by broth microdilution technique; type: functional

SMILES | MIC (Candida albicans [1]) | MIC (Candida parapsilosis) | MIC (Aspergillus fumigatus) | MIC [2] | MIC (Candida albicans [3]) | Ratio (Sporothrix schenckii [4]) | MIC (Candida albicans [5]) | MIC (Candida albicans [6]) | MIC (Candida albicans [7]) | MIC (Candida albicans [8]) | Activity (L929 [9]) | MIC (Candida albicans [10]) | Ratio (Candida albicans [11]) | Ratio (Sporothrix schenckii [12]) | MIC (Candida albicans [13]) | Activity (L929 [14]) | MIC (Sporothrix schenckii [15]) | MIC (Cryptococcus neoformans) | MIC (Candida albicans [16])
CCCSC(=S)NCc1ccncc1 | 6.25 µg/mL (≈ 27.6 µM) | 12.5 µg/mL (≈ 55.2 µM) | 50 µg/mL (≈ 221 µM) | 3.12 µg/mL (≈ 13.8 µM) | 1.56 µg/mL (≈ 6.89 µM) | 12 | 6.25 µg/mL (≈ 27.6 µM) | 3.12 µg/mL (≈ 13.8 µM) | 12.5 µg/mL (≈ 55.2 µM) | 6.25 µg/mL (≈ 27.6 µM) | Toxic | 12.5 µg/mL (≈ 55.2 µM) | 2 | 12 | 6.25 µg/mL (≈ 27.6 µM) | Non-toxic | 0.39 µg/mL (≈ 1.72 µM) | 12.5 µg/mL (≈ 55.2 µM) | 12.5 µg/mL (≈ 55.2 µM)
C=CCSC(=S)NCc1ccncc1 | 1.56 µg/mL (≈ 6.95 µM) | 1.56 µg/mL (≈ 6.95 µM) | 25 µg/mL (≈ 111 µM) | 3.12 µg/mL (≈ 13.9 µM) | 0.78 µg/mL (≈ 3.48 µM) | 12 | 1.56 µg/mL (≈ 6.95 µM) | 6.25 µg/mL (≈ 27.9 µM) | 3.12 µg/mL (≈ 13.9 µM) | 1.56 µg/mL (≈ 6.95 µM) | Toxic | 1.56 µg/mL (≈ 6.95 µM) | 1 | 12 | 0.78 µg/mL (≈ 3.48 µM) | Non-toxic | 0.39 µg/mL (≈ 1.74 µM) | 3.12 µg/mL (≈ 13.9 µM) | 1.56 µg/mL (≈ 6.95 µM)
